1 compound from patent publication US20230002327A1, “SMALL-MOLECULE REGULATOR OF TLR8” (TSINGHUA UNIVERSITY, priority 2019, published 2023) can be followed below.

Assay [1] has as its system R848-induced signaling pathway in human peripheral blood mononuclear cells. The assay is described as follows: ELISA of TNF-α in R848-treated human peripheral blood mononuclear cells. Type of assay: cell-based. Particulars: human peripheral blood mononuclear cells (FIG. 8). As to the method: After 48 hours, suspending cells would adhere onto the surface of the 12-well plate, non-adhered cells and the medium were aspirated, and cells were washed with sterile […] buffer (3×1 mL). RPMI medium was added (1 mL/well), and R848 (1 μg/mL) and various concentrations of Compound 24 or Compound 10 (as a negative control) were further added to treat cells. Or, the same amount of peripheral blood mononuclear cells derived from healthy human were used instead of THP-1 cells for subsequent experiments.
After 24 hours, the supernatant of the medium was collected and stored in a freezer at −80° C. Cells were washed with PBS (3×1 mL), the 12-well plate was placed on ice, and then 400 μL of lysis buffer (containing protease inhibitor) was added to each well, during which the cells were pipetted every five minutes. After 20 minutes, the mixture was transferred to the corresponding 1.5-mL tube and centrifuged at 13.2K rpm and 4° C. for 20 minutes. 350 μL of the supernatant was collected into a new centrifuge tube and frozen at −80° C.
Cytokines interleukin-1β(IL-1β), interleukin-6 (IL-6) and tumor necrosis factor (TNF-α) were quantified by enzyme-linked immunosorbent assay (ELISA) according to the instructions of the kit provided by the manufacturer.
For orientation: An ELISA detects its analyte on a solid surface through an enzyme-linked reagent.

The test system of assay [2] is peripheral blood mononuclear cells of patients suffering from rheumatoid arthritis. The assay is described as follows: TNF-α in PBMC of rheumatoid arthritis patients. Type of assay: cell-based, human. As to conditions: PBMC derived from rheumatoid arthritis patients (FIG. 9). As to the method:
Approximately 8 mL of blood was collected from untreated rheumatoid arthritis patients.
Peripheral blood mononuclear cells (PBMCs) were isolated from the whole blood derived from 6 rheumatoid arthritis patients using the lymphocyte separation medium, and the cells were seeded in a 96-well round-bottom plate at a density of 1×10^6 cells/mL immediately after the isolation (cultured in RPMI 1640 (0.25 mL/well)).
Afterwards, cells were treated with 0, 10, 20, 40 and 80 μM Compound 24, Compound 10 was used as a negative control, and cells were placed in a cell incubator (37° C., 5% CO2) for incubation.
After 24 hours, the resultant was centrifuged at 4,000 rpm/minute for 10 minutes, and then the supernatant was collected, frozen to −80° C. and used for the determination of TNF-α. Quantification was conducted using a human TNF ELISA Kit.

Take `OCCCc1nnc(S)n1-c1ccc(Cl)cc1Cl` [Compound 10, 3-(4-(2,4-dichlorophenyl)-5-mercapto-4H-1,2,4-triazole-3-yl)propan-1-ol]: the “inhibitory effect on inflammatory factor TNF-α” value in assay [1] was “did not exert inhibitory effect”; in assay [2], “did not show such effect”.
